Results taken from ChEMBL document CHEMBL1137802, “Specific antioxidant activity of caffeoyl derivatives and other natural phenolic compounds: LDL protection against oxidation and decrease in the proinflammatory lysophosphatidylcholine production” (J Nat Prod, 2001).

What was measured:
Format in all cases: functional, cell-free
[1] = Antioxidant activity against Cu2+-induced lipid peroxidation in human plasma LDL preincubated for 1 hr before Cu2+ challenge
[2] = Antioxidant activity against Cu2+-induced lipid peroxidation in human plasma LDL assessed as conjugated diene formation at 5 umol/L preincubated for 1 hr before Cu2+ challenge measured after 210 mins
[3] = Antioxidant activity against Cu2+-induced lipid peroxidation in human plasma LDL assessed as conjugated diene formation at 5 umol/L preincubated for 1 hr before Cu2+ challenge measured after 270 mins
[4] = Antioxidant activity against Cu2+-induced lipid peroxidation in human plasma LDL assessed as lysophosphatidylcholine formation at 5 umol/L preincubated for 1 hr before Cu2+ challenge measured after 60 mins
[5] = Antioxidant activity against Cu2+-induced lipid peroxidation in human plasma LDL assessed as lysophosphatidylcholine formation at 5 umol/L preincubated for 1 hr before Cu2+ challenge measured after 90 mins
[6] = Antioxidant activity against Cu2+-induced lipid peroxidation in human plasma LDL assessed as lysophosphatidylcholine formation at 10 umol/L preincubated for 1 hr before Cu2+ challenge measured after 270 mins
[7] = Antioxidant activity against Cu2+-induced lipid peroxidation in human plasma LDL assessed as lysophosphatidylcholine formation at 10 umol/L preincubated for 1 hr before Cu2+ challenge measured after 360 mins
[8] = Antioxidant activity against Cu2+-induced lipid peroxidation in human plasma LDL assessed as vitamin E consumption at 10 umol/L preincubated for 1 hr before Cu2+ challenge measured after 15 mins
[9] = Antioxidant activity against Cu2+-induced lipid peroxidation in human plasma LDL assessed as vitamin E consumption at 10 umol/L preincubated for 1 hr before Cu2+ challenge measured after 60 mins
[10] = Antioxidant activity against Cu2+-induced lipid peroxidation in human plasma LDL assessed as vitamin E consumption at 10 umol/L preincubated for 1 hr before Cu2+ challenge measured after 180 mins
[11] = Antioxidant activity against Cu2+-induced lipid peroxidation in human plasma LDL assessed as maximal compound concentration at 10 umol/L preincubated for 1 hr before Cu2+ challenge measured after 90 mins relative to compound present at 0 min
[12] = Antioxidant activity against Cu2+-induced lipid peroxidation in human plasma LDL assessed as maximal compound concentration at 10 umol/L preincubated for 1 hr before Cu2+ challenge measured after 120 mins relative to compound present at 0 min
[13] = Antioxidant activity against Cu2+-induced lipid peroxidation in human plasma LDL assessed as maximal compound concentration at 10 umol/L preincubated for 1 hr before Cu2+ challenge measured after 150 mins relative to compound present at 0 min
[14] = Antioxidant activity against Cu2+-induced lipid peroxidation in human plasma LDL assessed as conjugated diene formation at 20 umol/L preincubated for 1 hr before Cu2+ challenge measured after 120 mins
[15] = Antioxidant activity against Cu2+-induced lipid peroxidation in human plasma LDL assessed as conjugated diene formation at 20 umol/L preincubated for 1 hr before Cu2+ challenge measured after 150 mins
[16] = Antioxidant activity against Cu2+-induced lipid peroxidation in human plasma LDL assessed as conjugated diene formation at 20 umol/L preincubated for 1 hr before Cu2+ challenge measured after 210 mins
[17] = Antioxidant activity against Cu2+-induced lipid peroxidation in human plasma LDL assessed as lysophosphatidylcholine formation at 20 umol/L preincubated for 1 hr before Cu2+ challenge measured after 120 mins
[18] = Antioxidant activity against Cu2+-induced lipid peroxidation in human plasma LDL assessed as vitamin E consumption at 20 umol/L preincubated for 1 hr before Cu2+ challenge measured after 30 mins
[19] = Antioxidant activity against Cu2+-induced lipid peroxidation in human plasma LDL assessed as vitamin E consumption at 20 umol/L preincubated for 1 hr before Cu2+ challenge measured after 60 mins
[20] = Antioxidant activity against Cu2+-induced lipid peroxidation in human plasma LDL assessed as vitamin E consumption at 20 umol/L preincubated for 1 hr before Cu2+ challenge measured after 120 mins
[21] = Antioxidant activity against Cu2+-induced lipid peroxidation in human plasma LDL assessed as maximal compound concentration at 20 umol/L preincubated for 1 hr before Cu2+ challenge measured after 15 mins relative to compound present at 0 min
[22] = Antioxidant activity against Cu2+-induced lipid peroxidation in human plasma LDL assessed as maximal compound concentration at 20 umol/L preincubated for 1 hr before Cu2+ challenge measured after 45 mins relative to compound present at 0 min
[23] = Antioxidant activity against Cu2+-induced lipid peroxidation in human plasma LDL assessed as maximal compound concentration at 20 umol/L preincubated for 1 hr before Cu2+ challenge measured after 60 mins relative to compound present at 0 min
[24] = Antioxidant activity against Cu2+-induced lipid peroxidation in human plasma LDL assessed as maximal compound concentration at 20 umol/L preincubated for 1 hr before Cu2+ challenge measured after 180 mins relative to compound present at 0 min
[25] = Antioxidant activity against Cu2+-induced lipid peroxidation in human plasma LDL assessed as vitamin E consumption at 5 umol/L preincubated for 1 hr before Cu2+ challenge measured after 210 mins
[26] = Antioxidant activity against Cu2+-induced lipid peroxidation in human plasma LDL assessed as maximal compound concentration at 5 umol/L preincubated for 1 hr before Cu2+ challenge measured after 15 mins relative to compound present at 0 min
[27] = Antioxidant activity against Cu2+-induced lipid peroxidation in human plasma LDL assessed as maximal compound concentration at 5 umol/L preincubated for 1 hr before Cu2+ challenge measured after 60 mins relative to compound present at 0 min
[28] = Antioxidant activity against Cu2+-induced lipid peroxidation in human plasma LDL assessed as maximal compound concentration at 5 umol/L preincubated for 1 hr before Cu2+ challenge measured after 90 mins relative to compound present at 0 min
[29] = Antioxidant activity against Cu2+-induced lipid peroxidation in human plasma LDL assessed as maximal compound concentration at 5 umol/L preincubated for 1 hr before Cu2+ challenge measured after 180 mins relative to compound present at 0 min
[30] = Antioxidant activity against Cu2+-induced lipid peroxidation in human plasma LDL assessed as maximal compound concentration at 5 umol/L preincubated for 1 hr before Cu2+ challenge measured after 270 mins relative to compound present at 0 min
[31] = Antioxidant activity against Cu2+-induced lipid peroxidation in human plasma LDL assessed as conjugated diene formation at 10 umol/L preincubated for 1 hr before Cu2+ challenge measured after 60 mins
[32] = Antioxidant activity against Cu2+-induced lipid peroxidation in human plasma LDL assessed as conjugated diene formation at 10 umol/L preincubated for 1 hr before Cu2+ challenge measured after 90 mins
[33] = Antioxidant activity against Cu2+-induced lipid peroxidation in human plasma LDL assessed as conjugated diene formation at 10 umol/L preincubated for 1 hr before Cu2+ challenge measured after 120 mins
[34] = Antioxidant activity against Cu2+-induced lipid peroxidation in human plasma LDL assessed as lysophosphatidylcholine formation at 10 umol/L preincubated for 1 hr before Cu2+ challenge measured after 60 mins

SMILES: CC(C)(Sc1cc(C(C)(C)C)c(O)c(C(C)(C)C)c1)Sc1cc(C(C)(C)C)c(O)c(C(C)(C)C)c1
- Activity [1]: 5.8 µM/L
- Activity [2]: 80.8%
- Activity [3]: 87.1%
- Activity [4]: 2.5%
- Activity [5]: 4.1%
- Activity [6]: 12.9%
- Activity [7]: 19.2%
- Activity [8]: 51.8%
- Activity [9]: 0%
- Activity [10]: 0%
- Activity [11]: 27.2%
- Activity [12]: 37.2%
- Activity [13]: 19.8%
- Activity [14]: 0.2%
- Activity [15]: 1.1%
- Activity [16]: 2.6%
- Activity [17]: 1%
- Activity [18]: 19.9%
- Activity [19]: 5.5%
- Activity [20]: 0%
- Activity [21]: 97%
- Activity [22]: 87.7%
- Activity [23]: 51.7%
- Activity [24]: 34.4%
- Activity [25]: 0%
- Activity [26]: 96%
- Activity [27]: 118%
- Activity [28]: 55.3%
- Activity [29]: 45.3%
- Activity [30]: 22.5%
- Activity [31]: 0.6%
- Activity [32]: 4%
- Activity [33]: 39.4%
- Activity [34]: 0.7%
